Consider 38 compounds from ChEMBL document CHEMBL4400537, “Virtual Screening Identifies Irreversible FMS-like Tyrosine Kinase 3 Inhibitors with Activity toward Resistance-Conferring Mutations” (J Med Chem, 2019).

pIC50: −log10 of the molar value. Active and inactive are the calls of the source. No cut-off for these calls is given here.

Series [1] in a line: Toxicity in zebrafish embryo assessed as mortality at 10 uM measured 120 hpf by fluorescence microscopy. Set-up: species or system Danio rerio. As to conditions: in vivo.
Series [2] deals with MV4-11. The series is described as follows: cells. The following applies: Homo sapiens, MV4-11, 72 h.
The target in series [3] is Glycogen synthase kinase-3 beta (Homo sapiens) (UniProt P49841). The series is described as follows: Inhibition of human N-terminal His-tagged GSK3beta expressed in baculovirus expression system at 1 uM relative to control.
Series [4] has as its target Glycogen synthase kinase-3 alpha (Homo sapiens) (UniProt P49840). Description: Inhibition of human N-terminal His-tagged GSK3alpha expressed in baculovirus expression system at 1 uM relative to control.
The nature of series [5]: physchem. As to conditions: potassium phosphate buffer with reduced glutathione.
Series [6] deals with Jurkat. Description: cells. The following applies: Homo sapiens, 72 h.
Series [7] deals with MOLM-14. Description: cells. The following applies: Homo sapiens, MOLM-14, 72 h.
Series [8] relates to THP-1. Description: cells. The following applies: Homo sapiens, THP-1, 72 h.
Series [9] deals with MV4-11. The series is described as follows: Cytotoxicity in human MV4-11 cells assessed as inhibition of cellular viability at 0.5 to 5000 nM incubated for 2 to 8 hrs followed by compound washout by CellTiter-Glo luminescent assay. It counts as functional, cell-based. Background: In ATP-based viability assays light output follows the ATP content of the culture.
The test system of series [10] is T1, Receptor-type tyrosine-protein kinase FLT3 (Homo sapiens), P36888 [D835Y].
T1 sequence (whole entry): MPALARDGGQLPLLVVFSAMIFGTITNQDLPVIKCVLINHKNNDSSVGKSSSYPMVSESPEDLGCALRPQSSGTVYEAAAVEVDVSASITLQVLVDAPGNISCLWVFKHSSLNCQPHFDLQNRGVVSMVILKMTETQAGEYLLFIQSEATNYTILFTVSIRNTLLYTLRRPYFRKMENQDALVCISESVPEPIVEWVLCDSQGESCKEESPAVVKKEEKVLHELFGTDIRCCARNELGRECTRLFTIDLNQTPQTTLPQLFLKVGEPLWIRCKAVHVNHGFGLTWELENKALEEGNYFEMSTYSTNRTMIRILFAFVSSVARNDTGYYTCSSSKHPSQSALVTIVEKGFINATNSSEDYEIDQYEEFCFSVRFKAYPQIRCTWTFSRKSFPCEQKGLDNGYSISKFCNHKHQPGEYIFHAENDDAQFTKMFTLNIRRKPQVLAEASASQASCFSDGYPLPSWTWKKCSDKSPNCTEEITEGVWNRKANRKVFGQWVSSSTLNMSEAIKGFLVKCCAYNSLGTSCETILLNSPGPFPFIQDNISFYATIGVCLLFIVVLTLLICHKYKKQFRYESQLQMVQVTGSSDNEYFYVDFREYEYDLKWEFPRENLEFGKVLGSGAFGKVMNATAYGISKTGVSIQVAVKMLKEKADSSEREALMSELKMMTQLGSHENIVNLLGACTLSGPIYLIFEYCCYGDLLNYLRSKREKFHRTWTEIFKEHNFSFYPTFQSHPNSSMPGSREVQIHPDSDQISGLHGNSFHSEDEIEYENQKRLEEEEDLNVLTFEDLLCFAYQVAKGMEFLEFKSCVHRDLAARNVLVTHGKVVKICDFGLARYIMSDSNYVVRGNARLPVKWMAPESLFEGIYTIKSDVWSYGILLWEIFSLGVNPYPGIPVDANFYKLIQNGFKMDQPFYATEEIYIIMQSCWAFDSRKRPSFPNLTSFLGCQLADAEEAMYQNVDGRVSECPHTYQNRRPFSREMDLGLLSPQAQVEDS
The series is described as follows: Covalent binding affinity to recombinant human FLT3 D835Y mutant (571 to 993 residues) expressed in baculovirus expression system at 100 uM by Western blot analysis. For orientation: In western blotting, separated proteins are transferred to a membrane and probed.

The test system is the same in series [11]. The series is described as follows: Covalent binding affinity to recombinant human FLT3 D835Y mutant (571 to 993 residues) expressed in baculovirus expression system at 50 uM by Western blot analysis.
Series [12] has the same test system. Description: Irreversible inhibition of recombinant human FLT3 D835Y mutant (571 to 993 residues) expressed in baculovirus expression system at 1 uM preincubated for 5 to 30 mins followed by myelobasic protein addition measured after 120 mins using BODIPY-tagged compounds in presence of ATP by ADP-Glo assay relative to control. (In ADP-Glo the light output rises with the ADP produced.)

A short description of series [13]: Drug uptake in zebrafish embryo gastrointestine at 10 uM starting 1 dpf and measured at 4 dpf by fluorescence microscopy. The following applies: in vivo. It counts as ADME, Danio rerio, Gastrointestinal tract.
Series [14] deals with T1, Receptor-type tyrosine-protein kinase FLT3 (Homo sapiens), P36888 [D835Y]. The series is described as follows: Inhibition of covalent binding of (Z)-N-(2-(2-(4-(2,8-Diethyl-5,5-difluoro-1,3,7,9-tetramethyl-5H-4lambda4,5lambda4-dipyrrolo[1,2-c:2',1'-f ][1,3,2]diazaborinin-10-yl)phenoxy)-acetamido)ethyl)-2,4-dimethyl-5-((2-oxo-5-(vinylsulfon-amido)-indolin-3-ylidene)methyl)-1H-pyrrole-3-carboxamide to recombinant human FLT3 D835Y mutant (571 to 993 residues) expressed in baculovirus expression system at […] by Western blot analysis.

Glycogen synthase kinase-3 beta (Homo sapiens), sequence (P49841 whole entry, looked up): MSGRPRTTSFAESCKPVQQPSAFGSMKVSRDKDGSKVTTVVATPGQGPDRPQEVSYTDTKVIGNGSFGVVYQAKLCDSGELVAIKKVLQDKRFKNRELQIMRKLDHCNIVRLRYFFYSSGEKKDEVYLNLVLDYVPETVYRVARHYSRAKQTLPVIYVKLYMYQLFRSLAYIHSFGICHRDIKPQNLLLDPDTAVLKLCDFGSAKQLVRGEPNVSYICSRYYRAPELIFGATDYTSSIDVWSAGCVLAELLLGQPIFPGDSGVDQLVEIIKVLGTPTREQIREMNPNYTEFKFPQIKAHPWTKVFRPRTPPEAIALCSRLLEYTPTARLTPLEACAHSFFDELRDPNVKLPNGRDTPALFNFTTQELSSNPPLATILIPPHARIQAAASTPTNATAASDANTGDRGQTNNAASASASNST
Glycogen synthase kinase-3 alpha (Homo sapiens), sequence (P49840 2-483 limits assumed): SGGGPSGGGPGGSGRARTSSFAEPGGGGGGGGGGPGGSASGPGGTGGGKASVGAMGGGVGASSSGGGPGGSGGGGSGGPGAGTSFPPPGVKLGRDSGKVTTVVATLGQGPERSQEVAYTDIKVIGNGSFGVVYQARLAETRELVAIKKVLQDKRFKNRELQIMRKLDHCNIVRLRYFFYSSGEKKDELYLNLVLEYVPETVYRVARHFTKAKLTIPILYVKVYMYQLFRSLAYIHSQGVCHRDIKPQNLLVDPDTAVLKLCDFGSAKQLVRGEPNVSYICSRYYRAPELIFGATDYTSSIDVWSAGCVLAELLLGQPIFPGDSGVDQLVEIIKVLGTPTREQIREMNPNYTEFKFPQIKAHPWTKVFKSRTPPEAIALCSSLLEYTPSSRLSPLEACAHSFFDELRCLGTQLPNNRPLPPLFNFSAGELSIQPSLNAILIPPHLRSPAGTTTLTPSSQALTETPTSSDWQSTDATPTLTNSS

`CC(=O)Nc1ccc2c(c1)/C(=C/c1ccc[nH]1)C(=O)N2`: the Activity entry in series [1] was “Non-Toxic”. In addition, the pIC50 in [2] is less than 9.00.

In [2], `C=CC(=O)Nc1ccc(Nc2nccc(Nc3cc(C4CC4)[nH]n3)n2)cc1` showed a negative-log IC50 (pIC50) of 6.28.

`C=CS(=O)(=O)Nc1ccc2c(c1)/C(=C/c1ccc[nH]1)C(=O)N2` had a pIC50 in series [2] of 7.17. This pIC50 is 0.89 log units higher than that of the compound before.

In series [2], `c1ccc(-c2cnc3[nH]cc(-c4ccccc4)c3c2)cc1` had a negative-log IC50 (pIC50) of less than 9.00.

With `CC(=O)Nc1cccc(Nc2nccc(Nc3cc(C4CC4)[nH]n3)n2)c1`, the pIC50 in [2] is less than 9.00.

With `c1ccc(Nc2nccc(Nc3cc(C4CC4)[nH]n3)n2)cc1`, the inhibition in series [3] is 76%; in series [4], 74%. In series [1], the Activity entry is “Toxic”. This compound also showed a pIC50 in [2] of 6.64.

Consider `CCN(CC)CCNC(=O)c1c(C)[nH]c(/C=C2\C(=O)Nc3ccc(NC(=O)CCl)cc32)c1C`, for which the half-life at 10 µM in series [5] worked out at 3.63 h. Also, the pIC50 was less than 6.00 in series [6], 7.68 in [2], 7.58 in series [7] and less than 6.00 in [8]. Further, in series [1], the Activity entry is reported as “Non-Toxic”.

In the case of `O=C(CBr)Nc1ccc2c(c1)/C(=C/c1ccc[nH]1)C(=O)N2`, in series [1], the Activity result is “Toxic”. This compound also gave a pIC50 in [2] of 6.19.

Take `C#CC(=O)Nc1ccc2c(c1)/C(=C/c1ccc[nH]1)C(=O)N2`: the pIC50 in series [2] is 6.15.

Regarding `C=CC(=O)Nc1cccc(Nc2nccc(Nc3cc(C4CC4)[nH]n3)n2)c1`, the pIC50 in [2] is 6.10.

Regarding `O=C1Nc2ccccc2/C1=C/c1ccccc1`, the pIC50 in series [2] was less than 9.00.

On to `O=C1Nc2ccccc2/C1=C/c1ccc[nH]1`, for which the inhibition in series [3] was -6%; in series [4], 12%.

`O=C(CCl)Nc1ccc2c(c1)/C(=C/c1ccc[nH]1)C(=O)N2` gave a negative-log IC50 (pIC50) in series [2] of 7.14.

In the case of `CC1(COc2ccc3c(c2)ncn3-c2ccc3cccc(N4CCC(N)CC4)c3n2)COC1` [CRENOLANIB], the negative-log IC50 (pIC50) is less than 6.00 in [6], 7.92 in [2] and less than 6.00 in series [8]. The Activity result in series [1] is reported as “Toxic”. Also, in series [9], the outcome was Active.

In the case of `CCC1=C(C)C2=C(c3ccc(OCC(=O)NCCNC(=O)c4c(C)[nH]c(/C=C5\C(=O)Nc6ccc(NC(=O)C(F)(F)F)cc65)c4C)cc3)c3c(C)c(CC)c(C)n3[B-](F)(F)[N+]2=C1C`, in [10], the Activity worked out at 18%. For the same compound, the inhibition was found to be 7% in series [11] and 34% in [12].

`O=C(CF)Nc1ccc2c(c1)/C(=C/c1ccc[nH]1)C(=O)N2` displayed a half-life at 10 µM in series [5] greater than 24 h. The Activity result in series [1] is on record as “Toxic”. In addition, the negative-log IC50 (pIC50) in series [2] was 6.07.

Turning to `CCN(CC)CCNC(=O)c1c(C)[nH]c(/C=C2\C(=O)Nc3ccc(NC(C)=O)cc32)c1C`, the negative logarithm of the IC50 (pIC50) in series [2] was less than 6.00.

Consider `C=CS(=O)(=O)Nc1cccc(Nc2nccc(Nc3cc(C4CC4)[nH]n3)n2)c1`, for which the values for the pIC50 in series [6], in [2] and in series [8] were 7.36, 8.64 and 6.76, respectively.

Take `CCC(=O)Nc1ccc(Nc2nccc(Nc3cc(C4CC4)[nH]n3)n2)cc1`: the pIC50 in [2] is less than 9.00.

`C=CC(=O)Nc1ccc2c(c1)/C(=C/c1ccc[nH]1)C(=O)N2` gave a pIC50 in series [2] of less than 9.00.

Take `CC1=CC(C)=[N+]2C1=Cc1ccc(CCC(=O)NCCNC(=O)c3c(C)[nH]c(/C=C4\C(=O)Nc5ccc(NC(=O)CCl)cc54)c3C)n1[B-]2(F)F`: in [11], the outcome was Active. Further, in [13], the Drug uptake entry is listed as “Active”. The inhibition in series [12] came to 55%.

Regarding `COc1cc(O)c2c(c1)[C@H]1O[C@@H]1C[C@H](O)[C@H](O)C(=O)/C=C\C[C@H](C)OC2=O` [HYPOTHEMYCIN], the negative-log IC50 (pIC50) in [6] was less than 6.00; in series [2] it was 7.82; in [8], less than 6.00. In addition, the Activity entry in series [1] is on record as “Toxic”.

As for `CCS(=O)(=O)Nc1ccc2c(c1)/C(=C/c1ccc[nH]1)C(=O)N2`, the negative logarithm of the IC50 (pIC50) in series [2] was less than 9.00.

With `C=CS(=O)(=O)Nc1ccc2c(c1)/C(=C/c1[nH]c(C)c(C(=O)NCCNC(=O)COc3ccc(C4=C5C(C)=C(CC)C(C)=[N+]5[B-](F)(F)n5c(C)c(CC)c(C)c54)cc3)c1C)C(=O)N2`, the result in series [10] and in series [11] was Active. The Drug uptake result in [13] was “Active”. Also, the inhibition in series [12] was determined as 89%.

Consider `CCC(=O)Nc1cccc(Nc2nccc(Nc3cc(C4CC4)[nH]n3)n2)c1`, for which the pIC50 in series [2] was less than 9.00.

In [2], `CCS(=O)(=O)Nc1ccc(Nc2nccc(Nc3cc(C4CC4)[nH]n3)n2)cc1` had a pIC50 of 6.89.

On to `O=C(CCl)Nc1ccc(Nc2nccc(Nc3cc(C4CC4)[nH]n3)n2)cc1`, for which the pIC50 in series [2] was 6.85.

Regarding `CC(=O)Nc1ccc2c(c1)/C(=C/c1[nH]c(C)c(C(=O)NCCNC(=O)CCc3ccc4n3[B-](F)(F)[N+]3=C(C)C=C(C)C3=C4)c1C)C(=O)N2`, the result in series [10] and in series [11] was inactive. For the same compound, the inhibition in series [12] was determined as 23%.

For `CCC(=O)Nc1ccc2c(c1)/C(=C/c1ccc[nH]1)C(=O)N2`, the pIC50 in series [2] was less than 9.00.

Compound `c1ccc(-c2cnc3ccccn23)cc1` had a pIC50 in [2] of less than 9.00.

Take `CCS(=O)(=O)Nc1cccc(Nc2nccc(Nc3cc(C4CC4)[nH]n3)n2)c1`: the pIC50 in series [2] was 6.31.

Regarding `CCN(CC)CCNC(=O)c1c(C)[nH]c(/C=C2\C(=O)Nc3ccc(NS(=O)(=O)CC)cc32)c1C`, the negative-log IC50 (pIC50) in [2] was 6.19. This pIC50 and that of the compound before are within 0.2 log units of each other.

Turning to `O=C(O)Cc1c[nH]c2ccccc12`, in series [14], the inhibition result is “Active”.

Consider `C=CS(=O)(=O)Nc1ccc(Nc2nccc(Nc3cc(C4CC4)[nH]n3)n2)cc1`, for which the pIC50 in series [6] was 6.53; in series [2], 7.24; in series [8], 6.29.

`C#CC(=O)Nc1cccc(Nc2nccc(Nc3cc(C4CC4)[nH]n3)n2)c1` gave a pIC50 in [2] of less than 9.00.

The compound `CC(=O)Nc1ccc(Nc2nccc(Nc3cc(C4CC4)[nH]n3)n2)cc1` showed a pIC50 in series [2] of less than 9.00.

`C#CC(=O)Nc1ccc(Nc2nccc(Nc3cc(C4CC4)[nH]n3)n2)cc1` gave a pIC50 in [2] of less than 9.00.

The compound `O=C(CCl)Nc1cccc(Nc2nccc(Nc3cc(C4CC4)[nH]n3)n2)c1` had a pIC50 in [2] of 6.76.

What is called pIC50 is −log10 of the IC50, conventionally taken in molar units. Low readings indicate a large IC50, high ones a small IC50. A word on the inhibition: it is the drop in the measured response relative to a control, in per cent. One may read the half-life as the time in which the quantity being followed falls by half. Higher therefore signals slow decline.
